Literature values in patent US20230056488A1, “COMPOSITION, ARTICLE AND METHOD FOR AFFECTING A MAMMAL” (COOLHOUSE SOURCING LLC, priority 2020, published 2023).

Legend:
[1] = oral and parenteral forms
[2] = laboratory and animal research
[3] = in vivo
[4] = test system: ionotropic glutamate receptors

Question: For `C[S@@+](CC[C@H](N)C(=O)[O-])C[C@H]1O[C@@H](n2cnc3c(N)ncnc32)[C@H](O)[C@@H]1O` [SAMe, (S)-2-amino-4-((SS)-(((2S,3S,4R,5R)-5-(6-amino-9H-purin-9-yl)-3,4-dihydroxytetrahydrofuran-2-yl)methyl)(methyl)sulfonio)butanoate], which “crossing of the blood-brain barrier / cerebrospinal fluid concentrations” value [1] is on record?
Answer: The value was “cross the blood-brain barrier and increase concentrations in cerebrospinal fluid”.

Question: Which toxicity to dogs does the source give for `CCCCCc1cc(O)c2c(c1)OC(C)(C)[C@@H]1CCC(C)=C[C@@H]21` [THC, tetrahydrocannabinol] here?
Answer: The toxicity to dogs was “toxic to dogs”.

Question: With `CCCc1cc(O)c2c(c1)OC(C)(C)[C@@H]1CCC(C)=C[C@@H]21` [THCV, Tetrahydrocannabivarin] as the compound, how does the anti-inflammatory effects [2] read?
Answer: Its anti-inflammatory effects is “some anti-inflammatory effects”.

Question: Which results are given for `CCNC(=O)CC[C@H](N)C(=O)O` [Theanine, theanine]?
Answer: crossing of the blood brain barrier [3]: cross the blood brain barrier (“BBB”) intact; binding to ionotropic glutamate receptors (AMPA and kainate receptors; lesser extent NMDA) [4]: micromolar range
